Details: both, human, serum, iv, 5 mg

CNC1(c2ccccc2Cl)CCCCC1=O (racemic) [(±)-ketamine, 2-(2-chlorophenyl)-2-(methylamino)cyclohexan-1-one]
AUC(0-inf): 59.9 ± 13.2 ng·h/mL | Cmax: 33.7 ± 9.74 ng/mL | half-life: 6.99 ± 5.22 h

Source: patent US11103467B2, “Method for treating depression” (DEVELCO PHARMA SCHWEIZ AG, priority 2014, dated 2021)
